In ChEMBL document CHEMBL2346498, “Expression, characterization and inhibition of Toxoplasma gondii 1-deoxy-D-xylulose-5-phosphate reductoisomerase” (Bioorg Med Chem Lett, 2013) one finds Ki data, which are given here for 11 molecules.

A short description of the test: Inhibition of recombinant Toxoplasma gondii DXR catalytic domain (68 to 513) expressed in Escherichia coli BL21 using DXP as substrate after 10 mins by Uv-spectrophotometric analysis. It counts as cell-free.

The Ki is a measure of affinity in units of concentration, obtained from inhibition or displacement. As to `O=P(O)(O)Cc1ccccn1` [PYRIDIN-2-YLMETHYLPHOSPHONIC ACID], the inhibitory constant (Ki) amounted to 4.1 µM.
In the case of `O=CN(O)CCC(c1ccncc1)P(=O)(O)O` (stereo unspecified) it was 0.079 µM; in that of `O=P(O)(O)Cc1ccc(-c2ccccc2)cn1`, 2.1 µM; in that of `CC(=O)N(O)CCCP(=O)(O)O` [FR-900098], 0.048 µM.
In the case of `O=CN(O)CCC(c1cccnc1)P(=O)(O)O` (stereo unspecified) it was 0.055 µM; in that of `CC(=O)N(O)CCC(c1ccncc1)P(=O)(O)O` (stereo unspecified), 0.53 µM; in that of `O=CN(O)CCCP(=O)(O)O` [FOSMIDOMYCIN], 0.09 µM.
In the case of `O=CN(O)CCC(c1ccc(Cl)c(Cl)c1)P(=O)(O)O` (stereo unspecified) it was 0.077 µM; in that of `CC(=O)N(O)CCC(c1cccnc1)P(=O)(O)O` (stereo unspecified), 0.97 µM.
As to `CC(=O)N(O)CCC(c1ccc(Cl)c(Cl)c1)P(=O)(O)O` (stereo unspecified), the Ki was determined as 0.22 µM.
`O=c1ccc(-c2ccccc2)cn1O` [1-HYDROXY-5-PHENYLPYRIDIN-2(1H)-ONE]: the Ki was determined as 25.6 µM.
